Our source for the IC50 values is patent US20260042755A1, “GPR6 INVERSE AGONISTS” (MapLight Therapeutics, Inc., priority 2022, published 2026).

The target in one assay is T1, GPR6 (Homo sapiens, UniProt P46095).
T1 construct: expressed in transfected cells; host or cells: CHO cells
Description: GPR6 antagonist functional cAMP assay (LANCE Ultra cAMP TR-FRET, CHO cells stably expressing GPR6). The assay is classed as cell-based. The procedure, abridged: (§1)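 10,000 cells/well; KRB buffer + 0.1% BSA + 150 μM Ro 20-1724; cpd 45 min, 37 °C, 0.1% DMSO; TR-FRET cAMP, 665 nm; 4-PL fit, normalized to DMSO (0.1%) and reference (100%) → IC50.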
(Changes in cAMP serve as a functional read-out for many G protein-coupled receptors.)

For the next assay, the target named is T2, GPR3 (Homo sapiens, UniProt P46089).
T2 construct: expressed in transfected cells; host or cells: CHO cells
T2 sequence (P46089 whole entry, species assumed): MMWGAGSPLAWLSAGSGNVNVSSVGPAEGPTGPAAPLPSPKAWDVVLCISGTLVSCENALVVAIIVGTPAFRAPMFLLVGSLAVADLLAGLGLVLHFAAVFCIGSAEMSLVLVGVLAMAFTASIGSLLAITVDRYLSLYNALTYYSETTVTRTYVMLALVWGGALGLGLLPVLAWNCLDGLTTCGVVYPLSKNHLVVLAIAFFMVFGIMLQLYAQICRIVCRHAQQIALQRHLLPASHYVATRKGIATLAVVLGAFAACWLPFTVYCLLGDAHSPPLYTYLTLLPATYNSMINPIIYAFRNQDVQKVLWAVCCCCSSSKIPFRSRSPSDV
Description: GPR3 antagonist functional cAMP assay (LANCE Ultra cAMP TR-FRET, CHO cells stably expressing GPR3). The assay is classed as cell-based. The procedure, abridged: as §1

The mark [1] stands for this setting: CHO cells stably expressing GPR6, cAMP assay (Example 24).
Setting [2] is: CHO cells stably expressing GPR3, cAMP assay (Example 24).
Where [3] appears, read: procedure as described in Example 24.
The mark [4] stands for this setting: CHO cells stably expressing GPR6, cAMP assay.
Setting [5] is: CHO cells stably expressing GPR3, cAMP assay.

T1 sequence (P46095 whole entry): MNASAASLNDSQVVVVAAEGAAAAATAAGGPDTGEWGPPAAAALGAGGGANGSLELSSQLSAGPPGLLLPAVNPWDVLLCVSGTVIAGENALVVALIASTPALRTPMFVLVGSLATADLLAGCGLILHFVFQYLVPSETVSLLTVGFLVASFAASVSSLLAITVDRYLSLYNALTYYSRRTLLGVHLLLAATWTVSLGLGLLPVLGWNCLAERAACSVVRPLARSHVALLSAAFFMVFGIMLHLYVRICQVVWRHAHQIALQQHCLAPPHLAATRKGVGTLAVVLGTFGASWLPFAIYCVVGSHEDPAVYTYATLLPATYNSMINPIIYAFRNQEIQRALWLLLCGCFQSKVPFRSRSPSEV

Consider `CC(=O)N1CCc2nc(N3CCC(Oc4ccc(F)cc4F)CC3)c(C3CCOCC3)nc2C1` [Compound 236, 1-{2-[4-(2,4-difluorophenoxy)piperidin-1-yl]-3-(oxan-4-yl)-5H,6H,7H,8H-pyrido[3,4-b]pyrazin-6-yl}ethan-1-one], for which the half-maximal inhibitory concentration (IC50) against GPR6 (setting [1]) and at GPR3 (setting [2]) was 1000 to 30000 nM in each case.
For `CNc1cccc(-c2nc3c(nc2N2CCC(Oc4ccc(F)cc4F)CC2)CCN(C(C)=O)C3)n1` [Compound 117, 1-{2-[4-(2,4-difluorophenoxy)piperidin-1-yl]-3-[6-(methylamino)pyridin-2-yl]-5H,6H,7H,8H-pyrido[3,4-b]pyrazin-6-yl}ethan-1-one], the half-maximal inhibitory concentration (IC50) was in the range of 100 to 1000 nM at GPR6 (setting [1]) and 1000 to 30000 nM at GPR3 (setting [2]).
On to `Nc1cc2nc(N3CCC(Oc4ccc(F)cc4F)CC3)c(-c3cnn(C4CC4)c3)nc2cn1` [Compound 462, 3-(1-cyclopropyl-1H-pyrazol-4-yl)-2-[4-(2,4-difluorophenoxy)piperidin-1-yl]pyrido[3,4-b]pyrazin-7-amine], for which the IC50 against GPR6 (setting [1]) was 100 to 1000 nM; on GPR3 (setting [2]) it was 1000 to 30000 nM.
As for `CC(C)(O)C(O)c1cc2nc(N3CCN(Cc4ccc(F)cc4F)CC3)c(-c3ccc(F)c(N)n3)nc2cn1` (stereo not shown) [Compound 791, 1-[3-(6-amino-5-fluoro-2-pyridyl)-2-{4-[(2,4-difluorophenyl)methyl]-1-piperazinyl}-1,4,6-triaza-7-naphthyl]-2-methyl-1,2-propanediol], the IC50 at GPR6 (procedure of Example 24) and against GPR3 (procedure of Example 24) was 100 to 1000 nM each time.
Take `CC(=O)N1CCc2nc(N3CCC(C(O)c4ccc(F)cc4F)CC3)c(-c3ccc(F)c(N)n3)nc2C1` (stereo not shown) [Compound 703, 1-[3-(6-amino-5-fluoro-2-pyridyl)-2-{4-[(2,4-difluorophenyl)hydroxymethyl]-1-piperidyl}-5,6,7,8-tetrahydro-1,4,6-triaza-6-naphthyl]-1-ethanone]: the IC50 at GPR6 (procedure of Example 24) and against GPR3 (procedure of Example 24) was 1000 to 30000 nM each time.
Regarding `Fc1ccc(OC2CCN(c3nc4ccncc4nc3-c3cn[nH]c3)CC2)c(F)c1` [Compound 9, 4-(2,4-difluorophenoxy)-1-[3-(1H-pyrazol-4-yl)pyrido[3,4-b]pyrazin-2-yl]piperidine], the IC50 on GPR6 (setting [3]) and at GPR3 (setting [3]) was 100 to 1000 nM each time.
Take `CC(=O)N1Cc2nc(-c3cnn(C)c3)c(N3CCC(Oc4ccc(F)cc4F)CC3)nc2CC1C` (stereo not shown) [Compound 394, 1-{2-[4-(2,4-difluorophenoxy)piperidin-1-yl]-7-methyl-3-(1-methyl-1H-pyrazol-4-yl)-5H,6H,7H,8H-pyrido[3,4-b]pyrazin-6-yl}ethan-1-one]: the results for the half-maximal inhibitory concentration (IC50) against GPR6 (setting [1]) and against GPR3 (setting [2]) were 100 to 1000 nM and 1000 to 30000 nM, respectively.
`CCn1cc(-c2nc3c(nc2N2CCC(Oc4cc(Cl)ccc4Cl)CC2)CCN(C(C)=O)C3)cn1` [Compound 400, 1-{2-[4-(2,5-dichlorophenoxy)piperidin-1-yl]-3-(1-ethyl-1H-pyrazol-4-yl)-5H,6H,7H,8H-pyrido[3,4-b]pyrazin-6-yl}ethan-1-one]: the values for the IC50 against GPR6 (setting [1]) and on GPR3 (setting [2]) were 100 to 1000 nM and 1000 to 30000 nM, respectively.
As to `O=C(C1CNC1)N1CCc2nc(N3CCC(Oc4ccc(F)cc4F)CC3)c(-c3cn[nH]c3)nc2C1` [Compound 153, 1-[6-(azetidine-3-carbonyl)-3-(1H-pyrazol-4-yl)-5H,6H,7H,8H-pyrido[3,4-b]pyrazin-2-yl]-4-(2,4-difluorophenoxy)piperidine], the IC50 against GPR6 (setting [1]) and on GPR3 (setting [2]) was 1000 to 30000 nM throughout.
`CNc1cc2nc(N3CCC(Oc4ccc(F)cc4F)CC3)c(-c3cnn(C)c3)nc2cn1` [Compound 433, 2-(4-(2,4-difluorophenoxy)piperidin-1-yl)-N-methyl-3-(1-methyl-1H-pyrazol-4-yl)pyrido[3,4-b]pyrazin-7-amine]: the half-inhibitory concentration (IC50) against GPR6 (setting [1]) and at GPR3 (setting [2]) was 1000 to 30000 nM each time.
Consider `CCn1cc(-c2nc3c(nc2N2CCC(Oc4ccc(F)cc4F)CC2)CCN(C(=O)C2COCCO2)C3)cn1` (stereo not shown) [Compound 474, 4-(2,4-difluorophenoxy)-1-[6-(1,4-dioxane-2-carbonyl)-3-(1-ethyl-1H-pyrazol-4-yl)-5H,6H,7H,8H-pyrido[3,4-b]pyrazin-2-yl]piperidine], for which the IC50 is less than 100 nM on GPR6 (setting [1]) and 1000 to 30000 nM against GPR3 (setting [2]).
On to `N#CN1CCc2nc(N3CCC(Oc4ccc(F)cc4F)CC3)c(-c3cnn(C4CCCCO4)c3)nc2C1` (stereo not shown) [Compound 200, 2-[4-(2,4-difluorophenoxy)piperidin-1-yl]-3-[1-(oxan-2-yl)-1H-pyrazol-4-yl]-5H,6H,7H,8H-pyrido[3,4-b]pyrazine-6-carbonitrile], for which the IC50 against GPR6 (setting [1]) and on GPR3 (setting [2]) was 1000 to 30000 nM throughout.
Regarding `C=CC(=O)N1CCc2nc(N3CCC(Oc4ccc(F)cc4F)CC3)c(-c3cnn(CC)c3)nc2C1` [Compound 310, 1-{2-[4-(2,4-difluorophenoxy)piperidin-1-yl]-3-(1-ethyl-1H-pyrazol-4-yl)-5H,6H,7H,8H-pyrido[3,4-b]pyrazin-6-yl}prop-2-en-1-one], the half-maximal inhibitory concentration (IC50) against GPR6 (procedure of Example 24) was less than 100 nM; on GPR3 (procedure of Example 24), 1000 to 30000 nM.
`CC(=O)N1CCc2nc(N3CCN(Cc4ccc(Cl)cc4F)CC3)c(-c3ccc(F)c(N)n3)nc2C1` [Compound 610, 1-[3-(6-amino-5-fluoro-2-pyridyl)-2-{4-[(4-chloro-2-fluorophenyl)methyl]-1-piperazinyl}-5,6,7,8-tetrahydro-1,4,6-triaza-6-naphthyl]-1-ethanone]: the half-inhibitory concentration (IC50) against GPR6 (procedure of Example 24) is less than 100 nM; against GPR3 (procedure of Example 24), 1000 to 30000 nM.
Take `CC(=O)N1CCc2nc(N3CCN(Cc4ccc(=O)[nH]c4)CC3)c(-c3cnn(C)c3)nc2C1` [Compound 532, 5-({4-[6-acetyl-3-(1-methyl-4-pyrazolyl)-5,6,7,8-tetrahydro-1,4,6-triaza-2-naphthyl]-1-piperazinyl}methyl)-2(1H)-pyridinone]: the IC50 on GPR6 (setting [4]) and at GPR3 (setting [5]) was not below 30000 nM throughout.
As for `CC(=O)N1CCc2nc(N3CCC(Oc4ccc(F)cc4C)CC3)c(-c3cnn(C)c3)nc2C1` [Compound 432, 1-{2-[4-(4-fluoro-2-methylphenoxy)piperidin-1-yl]-3-(1-methyl-1H-pyrazol-4-yl)-5H,6H,7H,8H-pyrido[3,4-b]pyrazin-6-yl}ethan-1-one], the half-inhibitory concentration (IC50) against GPR6 (setting [1]) and on GPR3 (setting [2]) was 1000 to 30000 nM in each case.
Take `Fc1ccc(-c2ncc3n2CCN(c2nc4ccncc4nc2-c2cn[nH]c2)C3)c(F)c1` [Compound 130, 4-{2-[3-(2,4-difluorophenyl)-5H,6H,7H,8H-imidazo[1,5-a]pyrazin-7-yl]pyrido[3,4-b]pyrazin-3-yl}-1H-pyrazole]: the IC50 against GPR6 (setting [1]) and against GPR3 (setting [2]) was not below 30000 nM throughout.
Regarding `CC(=O)N1CCC=C(c2nc3c(nc2N2CCC(Oc4ccc(F)cc4F)CC2)CCN(C(C)=O)C3)C1` [Compound 71, 1-[3-(1-acetyl-1,2,5,6-tetrahydropyridin-3-yl)-2-[4-(2,4-difluorophenoxy)piperidin-1-yl]-5H,6H,7H,8H-pyrido[3,4-b]pyrazin-6-yl]ethan-1-one], the IC50 against GPR6 (setting [1]) and against GPR3 (setting [2]) was 1000 to 30000 nM in each case.
In the case of `Cn1cc(-c2nc3cc([C@](C)(O)C(C)(C)O)ncc3nc2N2CCN(Cc3ccc(F)cc3F)CC2)cn1` (single isomer, unassigned) [Compound 773], the concentration for half-maximal inhibition (IC50) at GPR6 (procedure of Example 24) and against GPR3 (procedure of Example 24) was 100 to 1000 nM in each case.
Regarding `COc1cccc(-c2nc3c(nc2N2CCC(Oc4ccc(F)cc4F)CC2)CCN(S(C)(=O)=O)C3)n1` [Compound 59, 2-(4-(2,4-difluorophenoxy)piperidin-1-yl)-3-(6-methoxypyridin-2-yl)-6-(methylsulfonyl)-5,6,7,8-tetrahydropyrido[3,4-b]pyrazine], the IC50 on GPR6 (setting [1]) and against GPR3 (setting [2]) was 1000 to 30000 nM in each case.
`CC(=O)N1CCc2nc(N3CCC(Oc4ccc(F)cc4F)CC3)c(-c3c(C)nn(C4CCCCO4)c3C)nc2C1` (stereo not shown) [Compound 47, 1-{2-[4-(2,4-difluorophenoxy)piperidin-1-yl]-3-[3,5-dimethyl-1-(oxan-2-yl)-1H-pyrazol-4-yl]-5H,6H,7H,8H-pyrido[3,4-b]pyrazin-6-yl}ethan-1-one]: the IC50 against GPR6 (setting [3]) and at GPR3 (setting [3]) was 1000 to 30000 nM each time.
In the case of `CC(=O)N1Cc2nc(-c3cnn(C)c3)c(N3CCC(Oc4ccc(F)cc4F)CC3)nc2CC1CO` (stereo not shown) [Compound 490, 1-{2-[4-(2,4-difluorophenoxy)piperidin-1-yl]-7-(hydroxymethyl)-3-(1-methyl-1H-pyrazol-4-yl)-5H,6H,7H,8H-pyrido[3,4-b]pyrazin-6-yl}ethan-1-one], the values for the half-inhibitory concentration (IC50) against GPR6 (setting [4]) and against GPR3 (setting [5]) were 100 to 1000 nM and 1000 to 30000 nM, respectively.
As to `CC(=O)N1CCc2nc(N3CCN(C(=O)c4cc(F)cc(F)c4)CC3)c(-c3cnn(C)c3)nc2C1` [Compound 285, 1-{2-[4-(3,5-difluorobenzoyl)piperazin-1-yl]-3-(1-methyl-1H-pyrazol-4-yl)-5H,6H,7H,8H-pyrido[3,4-b]pyrazin-6-yl}ethan-1-one], the results for the IC50 at GPR6 (procedure of Example 24) and against GPR3 (procedure of Example 24) were not below 30000 nM and 1000 to 30000 nM, respectively.
In the case of `CCn1cc(-c2nc3cnc([C@](C)(O)C(C)(C)O)cc3nc2N2CCN(Cc3ccc(F)cc3F)CC2)cn1` (single isomer, unassigned) [Compound 697], the IC50 was in the range of 100 to 1000 nM on GPR6 (procedure of Example 24) and 1000 to 30000 nM against GPR3 (procedure of Example 24).
On to `Cn1cc(-c2nc3cnc(C(O)CC#N)cc3nc2N2CCC(Oc3ccc(F)cc3F)CC2)cn1` (stereo not shown) [Compound 402, 3-(2-(4-(2,4-difluorophenoxy)piperidin-1-yl)-3-(1-methyl-1H-pyrazol-4-yl)pyrido[3,4-b]pyrazin-7-yl)-3-hydroxypropanenitrile], for which the 50% inhibitory concentration (IC50) against GPR6 (setting [1]) and on GPR3 (setting [2]) was 1000 to 30000 nM each time.
As to `CC(=O)N1CCc2nc(N3CCC(Oc4ccc(F)cc4F)CC3)c(-c3ccc[nH]c3=O)nc2C1` [Compound 157, 3-{6-acetyl-2-[4-(2,4-difluorophenoxy)piperidin-1-yl]-5H,6H,7H,8H-pyrido[3,4-b]pyrazin-3-yl}-1,2-dihydropyridin-2-one], the half-maximal inhibitory concentration (IC50) at GPR6 (setting [1]) and on GPR3 (setting [2]) was not below 30000 nM each time.

What is called IC50 is the midpoint of a concentration-inhibition curve. Read a low IC50 as inhibition by little substance.
